We go through 8 molecules from US20160287536A1, “Composition” (THE UNIVERSITY OF NOTTINGHAM, priority 2013, published 2016).

Type in all cases: cell-based
Test [1] relates to sheep isolated rectal artery. As to the kind of experiment: Wire myography, sheep isolated rectal artery (SRA). Particulars: for spontaneous contraction: sheep isolated rectal vessels, 10 μM. The protocol:
(§1) Sheep mesenteric tissue, from the distal sigmoid colon to the anus, was obtained from a local abattoir. The sheep tissue was delivered in a dry bag and stored at 4° C. until dissected. The bundle of sheep rectal vessels was dissected from its mesentery within four hours of arrival from the abattoir. The vascular bundle was then kept in the pre-oxygenated Krebs-Henseleit buffer solution at 4° C. until used (on the same day as a preferential method or on the following day after storage overnight). No experiments were conducted on tissue stored for more than 24 hours after dissection. The Krebs solution consisted of 118.4 mM NaCl, 4.7 mM KCl, 1.2 mM MgSO4, 1.2 mM KH2PO4, 1.25 mM CaCl2, 24.9 mM NaHCO3, and 11.1 mM glucose.
(§2) Before setting a wire myography experiment, the remaining loose connective tissue was meticulously removed from the rectal vessels. The internal diameter of sheep isolated rectal artery and vein was 450-650 μm and 500-1000 μm, respectively. Each 5-mm ring segment of the ‘clean’ vessels was then suspended between two 200-μm wire supports in an organ bath containing 20 ml Krebs-Henseleit buffer solution. The upper supporting wire was attached to an isometric force transducer, while the lower wire was fixed steadily to a clamped glass rod. The bath solution was maintained at 37° C., and continuously gassed with 95% O2 and 5% CO2. Isometric tension was continuously recorded using a PowerLab 4/25 via QUAD Bridge amplifier (ADInstruments, Inc, Australia).
(§3) After a 10-minute equilibration period, an initial tension of 8 gram weight (g wt) was gradually applied for an arterial segment and left to relax for 30 minutes. The final tension of SRA varied between 1.0 g wt and 2.8 g wt. For a venous segment, an initial tension of 1 g wt was applied and, 10 minutes later, the resting tension was finally re-adjusted to reach a tension of 0.5 g wt. Then the vein was left to relax for further 20 minutes. The final tension of SRV ranged from 0.08 to 0.25 g wt. Once the vascular segments were fully settled, the tissues were tested for contractile activity with 60 mM KCl on three occasions. The vascular contraction was allowed to reach maximum, which generally took about 1-4 minutes. Each KCl challenge was followed by two washouts of 37° C. Krebs solution and the tissues were allowed to rest for 20 minutes between the challenges. The maximum contraction (tension) produced by the third administration of 60 mM KCl was used as a reference contraction to which subsequent responses were compared. After the final (3rd) KCl challenge, the tissues were washed and left for 60 minutes before α-adrenoceptor agonist was administrated. To construct an agonist concentration-response curves (CRC), 0.3-0.4 log 10 increments of agonist solution was added e.g. at the agonist concentration of 100 nM, 200 nM, 500 nM, 1 μM, 2 μM, 5 μM, and so on. Each response was allowed to reach equilibrium or plateau before the next dose of agonist was added. The maximal response to the agonist was considered when no further increase in response occurred upon the addition of two or more consecutive doses of agonist.
(§4) In the case of the noradrenaline study, 10 μM cocaine was added into the organ bath 40 minutes prior to the administration of noradrenaline for inhibiting the uptake of noradrenaline by neural tissue within the vascular wall (re-uptake 1) (Westfall & Westfall, 2006 In Goodman & Gilman's the Pharmacological Basis of Therapeutics. eds Brunton, L. L., Lazo, J. S. & Paker, K. L. pp. 137-181. New York: McGraw Hill). Regarding KCl-induced vasoconstriction, the CRC was generated by the contractile response to 6 mM increments of KCl solution, starting from 0 mM to 60 mM.
(§5) Consecutive CRCs were generated to each agonist, separated by 60 minutes, and if there was no difference in the maximum response (Emax) and pEC50 (defined as the negative logarithm of the concentration required to produce 50% of the maximum response) then a paired CRC protocol was used throughout. […]

The test system of test [2] is sheep isolated rectal vein. In words: Wire myography, sheep isolated rectal vein (SRV). The protocol:
as §1, §2, §3, §4, §5

Test [3] concerns human isolated mesenteric vein. In words: Wire myography, human isolated mesenteric (colonic/rectal) vein (HMV). Particulars: for EC50: Homo sapiens. An excerpt:
After obtaining approval from the local research ethics committee (Reference number: 05/Q2403/171) and having written consent from the patient, human mesenteric (colonic or rectal) vessels were collected from patients who underwent colectomy and/or proctectomy at the Division of Gastrointestinal Surgery, Queen's Medical Centre, University of Nottingham, UK, between August 2009 and March 2010. Patients with a history of previous abdominal/pelvic radiotherapy, and patients with endocrine tumours or concomitant intraabdominal infection were excluded from this study. In an operating room, the mesentery containing the required segment of blood vessels was dissected from the whole surgical specimen immediately after it was removed from a patient. The tissue was then kept in a 100-ml pot containing pre-oxygenated Krebs-Henseleit buffer solution maintained at 4° C. until used. No experiments were conducted on tissue stored for more than 12 hours after dissection. The Krebs solution consisted of 118.4 mM NaCl, 4.7 mM KCl, 1.2 mM MgSO4, 1.2 mM KH2PO4, 1.25 mM CaCl2, 24.9 mM NaHCO3, and 11.1 mM glucose.
Before setting a wire myography experiment, human mesenteric (colonic/rectal) vessels were meticulously dissected from the surrounding mesenteric fatty tissue. The ‘clean’ vessel was then divided into 5-mm ring segments. Generally, the internal diameter of vessels ranged between 400-1000 μm for human mesenteric artery (HMA) and 500-1200 μm for human mesenteric vein (HMV). Each 5-mm ring segment was suspended between two 200-μm wire supports in an organ bath containing 20 ml Krebs-Henseleit buffer solution. The contractile study of human mesenteric vessels was then set in the similar manner of the previous study on sheep isolated rectal vessels.
After a 20-minute equilibration period, an initial resting tension of 8 and 1 gram weight (g wt) was gradually applied to arterial and venous ring segments, respectively, and left to relax for 30 minutes. The final resting tension varied between 1.8 g wt and 3.2 g wt for HMA, and between 0.07 g wt and 0.35 g wt for HMV. Once the vascular segments were fully settled, they were tested for contractile activity with 60 mM KCl three occasions, and an agonist concentration-response curves (CRC) was then reconstructed after the vessels were left to equilibrate for 60 minutes as previously described for sheep rectal vessels. […] In the case of noradrenaline study, 10 μM cocaine was added into the organ bath 40 minutes prior to the administration of noradrenaline for inhibiting the uptake of noradrenaline by neural tissue within the vascular wall (re-uptake 1) (Westfall & Westfall, 2006 In Goodman & Gilman's the Pharmacological Basis of Therapeutics. eds Brunton, L. L., Lazo, J. S. & Paker, K. L. pp. 137-181. New York: McGraw Hill).
Although it appeared that the CRCs of several vasoconstrictors were reproducible (no significant change in maximum response and agonist potency) in human mesenteric vessels, a single CRC, paired segment approach was adopted throughout the study of human blood vessels. This was due to a desire to limit the time of tissue storage and the ease of tissue preparation. The single CRC, paired segment approach involves the generation of only one agonist CRC per tissue. The maximum response (Emax) and pEC50 (defined as the negative logarithm of the concentration required to produce 50% of the maximum response) of each vascular segment were compared to those of other vascular segments (adjacent segments from the same patient, or other segments from different patients).
If the vessel had spontaneous and periodic contraction after the administration of S(−)-BayK8644—which occurred in 70% of HMA and 80% of HMV, the effect of agonist would be considered when there was an increase in the frequency of contraction as well as a rise in the baseline of vascular tone.
The selective α1-adrenoceptor antagonist prazosin and selective α2-adrenoceptor antagonist RX811059 were used in this study. […]

Setting [4] is: Ovis aries, SRV, agonist alone (control).
The mark [5] stands for this setting: with 10 nM prazosin and 30 nM RX811059.

Several values for one entry are separate records, joined by “and”; a condition that tells them apart may be missing. Identical values can stand only once. Like-named read-outs stand apart in the source and are kept apart here.

As for `N=C(N)NC(=O)Cc1c(Cl)cccc1Cl` [guanfacine], the EC50 is 794 nM in test [1] (Ovis aries, SRA, agonist alone); 398 nM in test [2] (setting [4]); 912 nM in test [2] (Ovis aries, SRV, in the presence of 10 nM prazosin and 30 nM RX811059); 229 nM in test [2] (Ovis aries, SRV, in the presence of 1 μM S(−)-BayK8644); 2240 nM in test [3] (control); 2450 nM in test [3] (with 10 nM prazosin). In addition, the figures for the EC50 in test [3] (setting [5]) and in test [3] (with 30 nM RX811059) were 6460 nM and 5250 nM, respectively. The Emax in test [1] (Ovis aries, SRA, read-out: maximum response relative to maximum response to noradrenaline) was approximately 20%; in test [2] (Ovis aries, SRV, read-out: maximum response relative to maximum response to noradrenaline) it was 45%; in test [2] (SRV, agonist alone (control)), 54.7±8.1 percentage of the contraction and 37.0±6.6 percentage of the contraction; in test [2] (SRV, in the presence of 10 nM prazosin and 30 nM RX811059) it was 31.3±4.2 percentage of the contraction; in test [2] (SRV, in the presence of 1 μM S(−)-BayK8644), 72.8±9.0 percentage of the contraction; in test [3] (control), 31.4±4.1 percentage of the contraction. Besides, the Emax in test [3] (with 10 nM prazosin) was 18.4±4.1 percentage of the contraction; in test [3] (setting [5]), 20.3±8.5 percentage of the contraction; in test [3] (with 30 nM RX811059) it was 33.0±4.1 percentage of the contraction. Besides, the “contractile response” value in test [1] (SRA) and in test [2] (SRV) was “concentration-dependent contractions” in each case. Moreover, in test [2] (SRV, agonist alone (control)), the pEC50 was 6.58±0.07 and 6.48±0.11.

In the case of `NCCc1c[nH]c2ccc(O)cc12` [5-HT, 5-hydroxytryptamine], the “contractile response” value in test [1] (SRA) and in test [2] (SRV) was “concentration-dependent contractions” throughout.

Take `NC[C@H](O)c1ccc(O)c(O)c1` [noradrenaline]: the “contractile response” value in test [1] (SRA) and in test [2] (SRV) was “concentration-dependent contractions” throughout. The EC50 is 389 nM in test [2] (setting [4]) and 1260 nM in test [2] (Ovis aries, SRV, in the presence of 30 nM RX811059). The venoselectivity in test [2] (sheep rectal vessels, vein vs artery) is reported as 4 fold.

With `O=c1c(O)c(-c2cc(O)c(O)c(O)c2)oc2cc(O)cc(O)c12` [myricetin, 3,3′,4′,5,5′,7-hesahydroxyflavone], the “spontaneous contraction” value in test [1] is “no spontaneous contraction”.

Take `COc1ccc(OC)c(C(O)C(C)N)c1` [L-erythro methoxamine]: the “contractile response” value in test [1] (SRA) and in test [2] (SRV) was “concentration-dependent contractions” in each case. Also, in test [1] (SRA and SRV), the “maximum response as fraction of that to noradrenaline” value is on record as “one-third”. Moreover, in test [1] (sheep rectal vessels, artery vs vein), the arterioselectivity turned out to be 3 fold.

As for `[Cl-].[K+]` [KCl], the “contractile response” value is “sustained concentration-dependent contraction” in test [1] (SRA) and “concentration-dependent contractions” in test [2] (SRV). For the same molecule, the “mean contraction to 60 mM KCl” value in test [1] (SRA, n=119) worked out at 3.14±0.09 g wt; in test [2] (SRV, n=128) it was 1.18±0.05 g wt.

As to `COc1ccc(-c2cc(=O)c3c(O)cc(O[C@@H]4O[C@H](CO[C@@H]5O[C@@H](C)[C@H](O)[C@@H](O)[C@H]5O)[C@@H](O)[C@H](O)[C@H]4O)cc3o2)cc1O` [diosmin, 3′,5,7-trihydroxy-4′-methoxyflavone 7-rutinoside], in test [1], the “spontaneous contraction” value is “no spontaneous contraction”.

Turning to `CCOC1(C2=NCCN2)COc2ccccc2O1` (centres unmarked) [RX811059, 2-(2-ethoxy-1,4-benzodioxan-2-yl)-2-imidazoline], the “effect on the noradrenaline CRC” value in test [1] (SRA, prazosin 0.4-10 nM, RX811059 30 nM) is “no change”. Besides, in test [2] (Ovis aries, SRV, 10 nM prazosin / 30 nM RX811059 against noradrenaline), the Kb was 13.8 nM. In test [2] (SRV, 10 nM prazosin / 30 nM RX811059 against noradrenaline), this molecule came in with a pKB of approximately 7.9. Besides, the “further rightward shift of the CRC for noradrenaline” value in test [2] (SRV, 30 nM RX811059 added to 10 nM prazosin) is 1.6 fold. Further, the “rightward shift of the CRC for noradrenaline” value in test [2] (SRV, prazosin 10 nM, RX811059 30 nM) is recorded as 3 fold. For the same molecule, the “effect on potency of noradrenaline” value in test [3] (10 nM prazosin, 30 nM RX811059) is reported as “significantly reduced the potency of noradrenaline”. The “parallel rightward shift of CRC to guanfacine” value in test [3] (30 nM) was 2 fold.
